# PMC12525728, “Safety, Pharmacokinetics, Translational and Molecular Mechanistic Insights on the Prostate Cancer Recurrence Suppressor Pseurotin A” (Molecules, 2025)
# System: Swiss albino mice
# Experiment: Hematological and biochemical evaluation after 90-day daily oral dosing
# Type: in vivo
# Conditions: for HCT / HGB / MCHC / MCV / PLT / RBC-H / WBC-H: mean ± SD; for ALP, plasma / ALT, plasma / AST, plasma / BUN, plasma / CREAT (creatinine), plasma / GLU (glucose), plasma: mean ± SEM
# Description: For the 90-day daily oral dosing sub-chronic toxicity study, twenty male and twenty female healthy 8-week-old Swiss albino mice were randomly selected and randomized to […] (n = 5/sex/group). Mice received free access to purified drinking water and high-fat diet (HFD) pelleted rodent chow (11.4% total fat, no. 7004, Envigo/Teklad, Madison, WI, USA) until the day before sacrifice, at which time they were fasted for 8 h and allowed only free access to drinking water. Daily doses of PsA (10, 40, 80 mg/kg body weight) were administered to the mice formulated in <5% DMSO (Mediatech Inc., Manassas, VA, USA) and <0.2% Tween 80 (Croda Inc., Princeton, NJ, USA) at a volume not exceeding 1% of body weight by metal oral gavage (2 mm diameter with stainless steel bite protector, 18-gauge, 3.81 cm long). […] The mice were observed weekly until the completion of the study. The body weights of the mice were measured in grams using a Scout^TM Pro (Ohaus Corp., Pine Brook, NJ, USA) on day 0, 4, 8, 11, 14, 21, 28, 35, 42, 49, 56, 63, 70, 77, 83, and 90 after initial treatment. On day 90, all mice were anesthetized using isoflurane (USP-vaporizer method, Matrix VIP-3000, Covetrus, Dublin, OH, USA, exposure of animals in an anesthesia chamber at 3% isoflurane vaporization rate. Exposure time 2 min). Mice were then euthanized by cervical dislocation according to the 2020 AVMA Guidelines on Euthanasia and dissected. Mice organs (brain, liver, kidney, heart, lungs, spleen) were excised and weighed for histopathological examination. The organs were stored in 10% neutral buffered formalin (Avantor Science Central, Allentown, PA, USA) for 24 h and then transferred to 70% ethanol (AAPER ALCOHOL, Shelbyville, KY, USA). This study was performed following the OECD guideline 408 for the testing of chemicals.
# On the day of sacrifice, mice were decapitated, and the blood was quickly collected into a green-topped Lithium Heparin 400 µL blood collection tube (BD Microtainer REF# 365965) as well as a purple-topped K2 EDTA (K2E) 500 µL blood collection tube (BD Microtainer, Cat# 365974) to ensure all blood samples were collected free of clots. The Li Heparin samples were immediately centrifuged at 13,000× g for 10 min, and the plasma was transferred to 1.5 mL Eppendorf tubes free of Li heparin for biochemical analysis. Plasma samples were analyzed for AST, ALT, ALP, glucose, BUN, and creatinine levels using the Beckman AU680 clinical chemistry analyzer system (Beckman Coulter, Atlanta, GA, USA). The ETDA samples were analyzed for hematological parameters, and WBC, RBC, Hgb, Hct, MCV, MCHC, and PLT were determined using the Siemens Advia 120 hematology analyzer (Siemens Healthcare Diagnostics Inc., Tarrytown, NY, USA). All blood samples were analyzed at the LSU School of Veterinary Medicine Clinical Pathology Laboratory at Baton Rouge, Louisiana.
# Results for the hematological and biochemical parameters were analyzed separately by One-way Analysis of Variance (ANOVA), followed by multiple comparisons with Dunnett’s test. All statistical analyses were performed using GraphPad Prism version 8 software (San Diego, CA, USA). Data in this study were expressed as a mean ± SD (standard deviation) and mean ± SEM (standard error of mean). A probability value of <0.05 was considered statistically significant (* p < 0.05; ** p < 0.01; and *** p < 0.001).
# [1] = female, 10mg/kg daily oral 90 days
# [2] = female, 40mg/kg daily oral 90 days
# [3] = female, 80mg/kg daily oral 90 days
# [4] = male and female treatment groups, 90 days
# [5] = male, 10mg/kg daily oral 90 days
# [6] = male, 40mg/kg daily oral 90 days
# [7] = male, 80mg/kg daily oral 90 days
structure (smiles),measurement,setting,value
"CC/C=C\[C@H](O)[C@H](O)C1=C(C)C(=O)[C@]2(O1)C(=O)N[C@@](OC)(C(=O)c1ccccc1)[C@@H]2O [PsA, pseurotin A]",AST level versus control,"all male dosing groups, 90 days",significantly lower
same,AST level versus control,"female treatment groups, 90 days",significant reduction
same,HCT,[1],48.5 ± 6.0%
same,HGB,[1],12.5 ± 0.3 g/dL
same,MCHC,[1],26.2 ± 3.0 g/dL
same,MCV,[1],52.1 ± 5.0 fL
same,PLT,[1],459.0 ± 99.1 103/μL
same,RBC-H,[1],9.3 ± 0.3 106/μL
same,WBC-H,[1],6.5 ± 0.6 103/μL
same,"ALP, plasma",[1],78.0 ± 3.8 U/L
same,"ALT, plasma",[1],34.3 ± 1.9 U/L
same,"AST, plasma",[1],61.7 ± 6.4 U/L
same,"BUN, plasma",[1],22.0 ± 0.6 mg/dL
same,"CREAT (creatinine), plasma",[1],0.2 ± 0.0 mg/dL
same,"GLU (glucose), plasma",[1],291.7 ± 6.5 mg/dL
same,"ALP, plasma",[2],68.0 ± 3.8 U/L
same,"ALT, plasma",[2],34.5 ± 1.9 U/L
same,"AST, plasma",[2],67.8 ± 7.1 U/L
same,"BUN, plasma",[2],17.5 ± 0.4 mg/dL
same,"CREAT (creatinine), plasma",[2],< 0.2 ± 0.0 mg/dL
same,"GLU (glucose), plasma",[2],259.0 ± 5.7 mg/dL
same,"ALP, plasma",[3],86.8 ± 13.4 U/L
same,"ALT, plasma",[3],30.3 ± 3.4 U/L
same,"AST, plasma",[3],81.3 ± 17.8 U/L
same,"BUN, plasma",[3],18.5 ± 2.1 mg/dL
same,"CREAT (creatinine), plasma",[3],0.2 ± 0.0 mg/dL
same,"GLU (glucose), plasma",[3],235.3 ± 19.4 mg/dL
same,plasma ALT level versus control,"female, all three treatment groups, 90 days",significantly lower
same,BUN level versus control,"male 10 mg/kg, female 40 mg/kg and female 80 mg/kg groups, 90 days",significantly lower
same,MCV versus control,"male 40 mg/kg group, 90 days",significantly higher
same,ALP and plasma glucose levels,[4],no significant changes
same,CREAT levels,[4],no significant change
same,"WBC-H, RBC-H, HGB, HCT, MCHC, PLT versus control","male up to 80 mg/kg, female 10 mg/kg, 90 days",did not show any significant changes
same,HCT,[5],41.0 ± 3.0%
same,HGB,[5],11.8 ± 0.4 g/dL
same,MCHC,[5],28.8 ± 2.5 g/dL
same,MCV,[5],49.6 ± 2.5 fL
same,PLT,[5],555.0 ± 147.7 103/μL
same,RBC-H,[5],8.3 ± 0.6 106/μL
same,WBC-H,[5],4.5 ± 1.0 103/μL
same,"ALP, plasma",[5],71.8 ± 4.7 U/L
same,"ALT, plasma",[5],28.3 ± 1.7 U/L
same,"AST, plasma",[5],57.8 ± 12.8 U/L
same,"BUN, plasma",[5],18.3 ± 0.7 mg/dL
same,"CREAT (creatinine), plasma",[5],0.2 ± 0.0 mg/dL
same,"GLU (glucose), plasma",[5],263.8 ± 9.9 mg/dL
same,HCT,[6],47.4 ± 4.3%
same,HGB,[6],11.9 ± 0.9 g/dL
same,MCHC,[6],25.1 ± 3.3 g/dL
same,MCV,[6],55.4 ± 4.8 fL
same,PLT,[6],413.0 ± 111.2 103/μL
same,RBC-H,[6],8.6 ± 0.8 106/μL
same,WBC-H,[6],5.0 ± 1.8 103/μL
same,"ALP, plasma",[6],78.3 ± 5.2 U/L
same,"ALT, plasma",[6],28.5 ± 2.5 U/L
same,"AST, plasma",[6],42.8 ± 1.9 U/L
same,"BUN, plasma",[6],20.5 ± 0.8 mg/dL
same,"CREAT (creatinine), plasma",[6],0.2 ± 0.0 mg/dL
same,"GLU (glucose), plasma",[6],248.5 ± 12.0 mg/dL
same,HCT,[7],47.8 ± 4.9%
same,HGB,[7],12.5 ± 0.3 g/dL
same,MCHC,[7],26.3 ± 2.2 g/dL
same,MCV,[7],53.3 ± 5.1 fL
same,PLT,[7],580.3 ± 119.8 103/μL
same,RBC-H,[7],9.0 ± 0.1 106/μL
same,WBC-H,[7],7.9 ± 1.4 103/μL
same,"ALP, plasma",[7],63.0 ± 3.4 U/L
same,"ALT, plasma",[7],48.0 ± 4.8 U/L
same,"AST, plasma",[7],48.5 ± 4.50 U/L
same,"BUN, plasma",[7],20.3 ± 0.2 mg/dL
same,"CREAT (creatinine), plasma",[7],0.2 ± 0.0 mg/dL
same,"GLU (glucose), plasma",[7],272.3 ± 15.4 mg/dL
same,ALT level versus control,"treated males, 90 days",did not show a significant change
